{
  "source": "patent US9855292B2",
  "about": "“Cyanocobalamin, methylcobalamin, and/or adenosylcobalamin to help maintain a pain-free head and pain-free body and provide defense against headaches and body pain” (priority 2013, dated 2018)",
  "key": {"[1]": {"experiment": "Example 2 Phase 3 study: blood serum cobalamin levels", "format": "in vivo, human", "details": "cyanocobalamin, methylcobalamin and adenosylcobalamin; 3.3 mg a.m. and p.m., six weeks", "source_text": "(§1) This clinical study was designed and directed by the inventor of the current patent. A large, multi-center, Phase 3, randomized, placebo-controlled clinical study on 1,551 patients was designed and directed by the inventor of the current patent. Methods: The study was titled: “A Phase 3, randomized, double-blind, placebo-controlled, parallel group study of the safety and efficacy of pre-seasonal sublingual cyanocobalamin lozenges on moderate to moderately severe seasonal allergic rhinitis in humans”. The study took place before and during the ragweed pollen season at 23 study sites in the Midwest, Northeast and Central Texas regions of the United States. Essentially all of the 23 investigators were Board Certified in Allergy/Immunology. Qualified subjects were randomized into an active or placebo group (approximately 50% and 50%) using an interactive voice recognition system (IVRS). All subjects (or their guardians) signed an Informed Consent form approved by the IRB. Each subject had three visits to the clinic. […] The blood samples were analyzed by chemiluminescent immunoassay for the presence of ragweed specific immunoglobulin epsilon (IgE), and were assayed for cobalamins (cyanocobalamin, methylcobalamin and adenosylcobalamin) levels. […]"}, "[2]": {"tested_on": "human subjects with demonstrated seasonal allergic rhinitis (hay fever)", "experiment": "Example 1 clinical study: reports of Headache after 21 days of study medication", "format": "in vivo", "details": "for post-treatment reports of Headache, decrease from baseline: active group", "description": "This clinical study was designed and directed by the inventor of the current patent. […] Subjects were given their study medication, either Cyanocobalamin, USP or placebo in the a.m. and p.m. every day for 21 consecutive days. Data on adverse events including headache was captured throughout the ten-week duration of the study. Week One was a baseline during which time no medication was administered; Weeks Two, Three and Four were the weeks during which time the subjects received their study medication; and Weeks Five through Ten were a post-treatment period during which time no medication was administered but observations of symptoms and adverse events were documented. Each time a subject felt a “Headache”, he or she reported its occurrence."}, "[3]": {"tested_on": "moderate to moderately severe seasonal allergic rhinitis in humans", "experiment": "Example 2 Phase 3 study: allergy symptom scores", "format": "in vivo, human", "details": "Weeks 4, 5 and 6; ITT; sneezing, runny nose, nasal congestion, nasal itch and eye itch", "source_text": "as §1"}, "[4]": {"experiment": "Example 2 Phase 3 study: safety", "format": "in vivo, human", "details": "3.3 mg a.m. and p.m., six weeks", "source_text": "This clinical study was designed and directed by the inventor of the current patent. A large, multi-center, Phase 3, randomized, placebo-controlled clinical study on 1,551 patients was designed and directed by the inventor of the current patent. Methods: The study was titled: “A Phase 3, randomized, double-blind, placebo-controlled, parallel group study of the safety and efficacy of pre-seasonal sublingual cyanocobalamin lozenges on moderate to moderately severe seasonal allergic rhinitis in humans”. The study took place before and during the ragweed pollen season at 23 study sites in the Midwest, Northeast and Central Texas regions of the United States. Essentially all of the 23 investigators were Board Certified in Allergy/Immunology. Qualified subjects were randomized into an active or placebo group (approximately 50% and 50%) using an interactive voice recognition system (IVRS). […] The blood samples were analyzed by chemiluminescent immunoassay for the presence of ragweed specific immunoglobulin epsilon (IgE), and were assayed for cobalamins (cyanocobalamin, methylcobalamin and adenosylcobalamin) levels.\nAny adverse event (AE) or serious adverse event (SAE) was documented by the subject in a paper diary and then transcribed to the appropriate case report form (CRF) page. […] All sites were monitored multiple times by qualified monitors."}, "migraine patients [5]": {"tested_on": "migraine patients", "details": "2 mg intramuscularly every two weeks for two months, cited from earlier work"}, "[6]": {"tested_on": "headache and body pain in humans", "experiment": "Example 2 Phase 3 study: documented reports of headache and body pain", "format": "in vivo, human", "details": "active group", "source_text": "This clinical study was designed and directed by the inventor of the current patent. A large, multi-center, Phase 3, randomized, placebo-controlled clinical study on 1,551 patients was designed and directed by the inventor of the current patent. Methods: The study was titled: “A Phase 3, randomized, double-blind, placebo-controlled, parallel group study of the safety and efficacy of pre-seasonal sublingual cyanocobalamin lozenges on moderate to moderately severe seasonal allergic rhinitis in humans”. The study took place before and during the ragweed pollen season at 23 study sites in the Midwest, Northeast and Central Texas regions of the United States. Essentially all of the 23 investigators were Board Certified in Allergy/Immunology. Qualified subjects were randomized into an active or placebo group (approximately 50% and 50%) using an interactive voice recognition system (IVRS). All subjects (or their guardians) signed an Informed Consent form approved by the IRB. Each subject had three visits to the clinic. At Visit 1 and at Visit 3, they were given a physical exam (HEENT, chest, lungs, heart, vital signs, height and weight); and donated blood and urine samples for laboratory analysis. CBC and chemistry panels were run for safety analyses. The blood samples were analyzed by chemiluminescent immunoassay for the presence of ragweed specific immunoglobulin epsilon (IgE), and were assayed for cobalamins (cyanocobalamin, methylcobalamin and adenosylcobalamin) levels.\nSubjects were given their study medication, either 3.3 mg Cyanocobalamin, USP or placebo in the a.m. and p.m. Subjects were instructed to let the study drug “dissolve completely in your mouth, especially under your tongue, then swallow.”. Subjects self-administered the study medications for six consecutive weeks.\nAny adverse event (AE) or serious adverse event (SAE) was documented by the subject in a paper diary and then transcribed to the appropriate case report form (CRF) page. All SAEs were attended to by the investigator, and reported to the FDA by the sponsor. All sites were monitored multiple times by qualified monitors.\nThe following types of headaches were self-diagnosed and documented by subjects in the study: tension headache, headache, migraine, increased frequency of headaches, worsening sinus migraine headache, increased headache, headache worsening, worsening of migraine, sinus headache, severe sinus headache, and sinus pressure headache.\nThe following types of body pains and myasthenia were self-diagnosed and documented by subjects in the study: ear pain, earache, sore throat, sore muscles, leg cramps, myalgia, back pain, sprained ankle, ache, toothache, hip pain, finger pain, knee pain, pulled back muscle, shoulder pain, pulled hamstring, neck pain, femur pain, gum pain, sore muscle, toenail pain, sore foot, and pulled neck muscle."}, "migraine patients [7]": {"tested_on": "migraine patients", "details": "cited from earlier work; for mean migraine severity: 0-3 scale, all subjects"}},
  "note": "Read-outs that look alike come from different tables or passages of the source.",
  "data": [
    {"compound": "5,6-dimethylbenzimidazolyl cyanocobamide [cyanocobalamin]", "values": [
      {"measurement": "average increase in post-treatment blood serum cobalamin levels", "setting": "[1]", "result": "more than 250%"},
      {"measurement": "post-treatment reports of Headache, decrease from baseline", "setting": "[2]; Week Eight", "result": "−2.1"},
      {"measurement": "post-treatment reports of Headache, decrease from baseline", "setting": "[2]; Week Five", "result": "−1.4"},
      {"measurement": "post-treatment reports of Headache, decrease from baseline", "setting": "[2]; Week Nine", "result": "−3.4"},
      {"measurement": "post-treatment reports of Headache, decrease from baseline", "setting": "[2]; Week Seven", "result": "−1.4"},
      {"measurement": "post-treatment reports of Headache, decrease from baseline", "setting": "[2]; Week Six", "result": "−1.6"},
      {"measurement": "post-treatment reports of Headache, decrease from baseline", "setting": "[2]; Week Ten", "result": "−3.2"},
      {"measurement": "persistence of effect per follow-up questionnaire", "setting": "[2]; almost one year later, 43 active and 49 placebo subjects", "result": "persistence of effect lasting almost one year"},
      {"measurement": "persistence of effect after finishing the treatment", "setting": "[2]; post-treatment Weeks Five through Ten", "result": "at least six weeks"},
      {"measurement": "greater reduction in the frequency of headache in the active group versus placebo", "setting": "[2]; six post-treatment weeks", "result": "five out of six post-treatment weeks"},
      {"measurement": "reduction in allergy symptom severity from baseline versus placebo", "setting": "[3]", "result": "greater for the active group than the placebo group"},
      {"measurement": "safety / tolerability", "setting": "[4]", "result": "well tolerated"},
      {"measurement": "authors' conclusion on therapeutic effect", "setting": "migraine patients [5]", "result": "no therapeutic effect attributable to cyanocobalamin was demonstrated"},
      {"measurement": "patients reporting Considerable improvement", "setting": "migraine patients [5]; active n=15", "result": 2},
      {"measurement": "patients reporting Good result", "setting": "migraine patients [5]; active n=15", "result": 4},
      {"measurement": "headache and body pain reports rated Mild", "setting": "[6]", "result": 63, "unit": "reports"},
      {"measurement": "headache and body pain reports rated Mild, share", "setting": "[6]", "result": 46.0, "unit": "%"},
      {"measurement": "headache and body pain reports rated Moderate", "setting": "[6]", "result": 68, "unit": "reports"},
      {"measurement": "headache and body pain reports rated Moderate, share", "setting": "[6]", "result": 49.6, "unit": "%"},
      {"measurement": "headache and body pain reports rated Severe", "setting": "[6]", "result": 6, "unit": "reports"},
      {"measurement": "headache and body pain reports rated Severe, share", "setting": "[6]", "result": 4.4, "unit": "%"},
      {"measurement": "documented reports of some type of headache and of body pain", "setting": "[6]; of 294 reports in total", "result": 137, "unit": "reports"}
    ]},
    {"compound": "C/C1=C2/[N-][C@H]([C@H](CC(N)=O)[C@@]2(C)CCC(=O)NC[C@@H](C)OP(=O)([O-])O[C@H]2[C@@H](O)[C@@H](n3cnc4cc(C)c(C)cc43)O[C@@H]2CO)[C@]2(C)N=C(/C(C)=C3N=C(/C=C4N=C1[C@@H](CCC(N)=O)C\\4(C)C)[C@@H](CCC(N)=O)[C@]\\3(C)CC(N)=O)[C@@H](CCC(N)=O)[C@]2(C)CC(N)=O.[Co+3].[OH-]", "note": "[hydroxocobalamin]", "values": [
      {"measurement": "mean migraine severity", "setting": "migraine patients [7]; at baseline", "result": 2.2},
      {"measurement": "mean migraine severity", "setting": "migraine patients [7]; at the end of the study", "result": 2.1},
      {"measurement": "effect on migraine", "setting": "migraine patients [7]; intranasal, unblinded, open-label, 19 migraine patients", "result": "can have an effect on migraine"}
    ]}
  ]
}
